Source: PubChem BioAssay (NCI)
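These data come from cells grown in 96-well plates and exposed to compound for 48 hours at five concentrations. TGI marks complete inhibition of growth.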

Experiments:
Assay in all cases: growth of human tumour cells (NCI), 48 h
[1] = system: SF-539 CNS
[2] = system: ACHN renal
[3] = system: DMS 114 small cell lung
[4] = system: KM12 colon
[5] = system: SW-620 colon
[6] = system: A549 NSCLC
[7] = system: RXF 393 renal
[8] = system: NCI-H460 lung
[9] = system: OVCAR-8 ovarian
[10] = system: A498 renal
[11] = system: HOP-92 NSCLC
[12] = system: HOP-18 NSCLC
[13] = system: NCI-H23 lung
[14] = system: SK-MEL-28 melanoma
[15] = system: SNB-19 CNS
[16] = system: SK-OV-3 ovarian
[17] = system: K-562 leukemia
[18] = system: LOX IMVI melanoma
[19] = system: RXF-631 renal
[20] = system: UACC-62 melanoma
[21] = system: IGROV1 ovarian
[22] = system: DLD-1 colon
[23] = system: TK-10 renal
[24] = system: HL-60(TB) leukemia
[25] = system: SR leukemia
[26] = system: SF-295 CNS
[27] = system: MOLT-4 leukemia
[28] = system: CCRF-CEM leukemia
[29] = system: MALME-3M melanoma
[30] = system: CAKI-1 renal
[31] = system: LXFL 529 NSCLC
[32] = system: UACC-257 melanoma
[33] = system: SF-268 CNS
[34] = system: UO-31 renal
[35] = system: SK-MEL-2 melanoma
[36] = system: HT29 colon
[37] = system: SN12C renal
[38] = system: U251 CNS
[39] = system: SK-MEL-5 melanoma
[40] = system: OVCAR-4 ovarian
[41] = system: HOP-62 NSCLC
[42] = system: XF 498 CNS
[43] = system: DMS 273 small cell lung
[44] = system: 786-0 renal
[45] = system: EKVX NSCLC
[46] = system: NCI-H522 lung

O=[N+]([O-])c1ccccc1C1SCc2nc3ccccc3n21 (stereo unspecified)
TGI [1]: > 100 µM | TGI [2]: > 100 µM | TGI [3]: > 100 µM | TGI [4]: > 100 µM | TGI [5]: > 100 µM | TGI [6]: > 100 µM | TGI [7]: > 100 µM | TGI [8]: > 100 µM | TGI [9]: > 100 µM | TGI [10]: > 100 µM | TGI [11]: > 100 µM | TGI [12]: > 100 µM | TGI [13]: > 100 µM | TGI [14]: > 100 µM | TGI [15]: > 100 µM | TGI [16]: > 100 µM | TGI [17]: > 100 µM | TGI [18]: > 100 µM | TGI [19]: > 100 µM | TGI [20]: > 100 µM | TGI [21]: > 100 µM | TGI [22]: > 100 µM | TGI [23]: > 100 µM | TGI [24]: > 100 µM | TGI [25]: > 100 µM | TGI [26]: > 100 µM | TGI [27]: > 100 µM | TGI [28]: > 100 µM | TGI [29]: > 100 µM | TGI [30]: > 100 µM | TGI [31]: > 100 µM | TGI [32]: > 100 µM | TGI [33]: > 100 µM | TGI [34]: > 100 µM | TGI [35]: > 100 µM | TGI [36]: > 100 µM | TGI [37]: > 100 µM | TGI [38]: > 100 µM | TGI [39]: 48.3 µM | TGI [40]: > 100 µM | TGI [41]: > 100 µM | TGI [42]: > 100 µM | TGI [43]: > 100 µM | TGI [44]: > 100 µM | TGI [45]: > 100 µM | TGI [46]: > 100 µM
